Experimental data taken from patent publication US20240190880A1 (THE REGENTS OF THE UNIVERSITY OF MICHIGAN, priority 2021, published 2024).
Like-named read-outs stand apart in the source and are kept apart here.

Molecular target: T1, ER (Homo sapiens, UniProt P03372)
T1 construct: host or cells: T47D and MCF7 human breast cancer cells
T1 sequence (P03372 1-595): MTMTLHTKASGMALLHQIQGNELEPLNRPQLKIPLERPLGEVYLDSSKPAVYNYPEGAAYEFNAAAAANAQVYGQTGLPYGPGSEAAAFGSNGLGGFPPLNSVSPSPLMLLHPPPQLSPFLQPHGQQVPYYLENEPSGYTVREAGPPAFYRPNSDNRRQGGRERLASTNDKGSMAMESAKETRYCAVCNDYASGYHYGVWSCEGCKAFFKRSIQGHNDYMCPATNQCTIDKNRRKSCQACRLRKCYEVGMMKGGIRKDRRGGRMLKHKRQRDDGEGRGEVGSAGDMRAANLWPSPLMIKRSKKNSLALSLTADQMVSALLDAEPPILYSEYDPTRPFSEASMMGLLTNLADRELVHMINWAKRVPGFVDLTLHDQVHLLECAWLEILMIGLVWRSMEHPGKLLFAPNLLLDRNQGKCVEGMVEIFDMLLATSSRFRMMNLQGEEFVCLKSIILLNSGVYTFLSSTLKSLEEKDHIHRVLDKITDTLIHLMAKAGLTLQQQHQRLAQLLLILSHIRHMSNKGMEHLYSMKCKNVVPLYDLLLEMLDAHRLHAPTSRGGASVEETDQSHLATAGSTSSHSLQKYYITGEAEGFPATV
Assay: ER degradation activity, in-cell western blot analysis in T47D cells
Type: cell-based
Outline: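 In-cell western, T47D; compounds 16 h, 0.5% DMSO final; anti-rabbit-680/anti-mouse-800 secondaries, 1 h RT, dark; read on CLX imager. ER % vs untreated/DMSO wells (100%).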

[1] = 16 hours, Table A does not say which cell line (T47D or MCF7), read-out: Potency (DC50)
[2] = compounds 16 hours, Table A does not say whether T47D or MCF7, read-out: Potency (DC50)

SMILES	DC50 [1]	DC50 [2]
O=C1CCC(N2C(=O)c3cc4c(cc3C2=O)CN(C2CCN(C(=O)C3CCN(c5ccc([C@@H]6c7ccc(O)cc7CC[C@@H]6c6ccccc6)cc5)CC3)CC2)C4)C(=O)N1 (stereo partly drawn) [E 240, 2-(2,6-dioxopiperidin-3-yl)-6-(1-(1-(4-((1R,2S)-6-hydroxy-2-phenyl-1,2,3,4-tetrahydronaphthalen-1-yl)phenyl)piperidine-4-carbonyl)piperidin-4-yl)-6,7-dihydropyrrolo[3,4-f]isoindole-1,3(2H,5H)-dione]	> 100 nM	
O=C1CCC(N2C(=O)c3cc4c(cc3C2=O)CC2(C4)CN(C(=O)C3CCN(c4ccc([C@@H]5c6ccc(O)cc6CC[C@@H]5c5ccccc5)cc4)CC3)C2)C(=O)N1 (stereo partly drawn) [E 501, 2′-(2,6-dioxopiperidin-3-yl)-1-(1-(4-((1R,2S)-6-hydroxy-2-phenyl-1,2,3,4-tetrahydronaphthalen-1-yl)phenyl)piperidine-4-carbonyl)-5′,7′-dihydro-1′H-spiro[azetidine-3,6′-cyclopenta[f]isoindole]-1′,3′(2′H)-dione]		> 100 nM
C[C@@H]1Cc2cc(O)ccc2[C@@H](c2c(F)cc(N3CCC4(CCN(C(=O)CN5Cc6cc7c(cc6C5)C(=O)N(C5CCC(=O)NC5=O)C7=O)CC4)CC3)cc2F)N1CC(F)F (stereo partly drawn) [E 320, 6-(2-(9-(4-((1S,3R)-2-(2,2-difluoroethyl)-6-hydroxy-3-methyl-1,2,3,4-tetrahydroisoquinolin-1-yl)-3,5-difluorophenyl)-3,9-diazaspiro[5.5]undecan-3-yl)-2-oxoethyl)-2-(2,6-dioxopiperidin-3-yl)-6,7-dihydropyrrolo[3,4-f]isoindole-1,3(2H,5H)-dione]	< 10 nM	
O=C1CCC(N2C(=O)c3cc4c(cc3C2=O)CN(CC(=O)N2CCC3(CC2)CCN(c2ccc(C(=C(CCCl)c5ccccc5)c5ccc(B(O)O)cc5)cc2)CC3)C4)C(=O)N1 (centres unmarked) [E 197, (4-(4-chloro-1-(4-(9-(2-(6-(2,6-dioxopiperidin-3-yl)-5,7-dioxo-3,5,6,7-tetrahydropyrrolo[3,4-f]isoindol-2(1H)-yl)acetyl)-3,9-diazaspiro[5.5]undecan-3-yl)phenyl)-2-phenylbut-1-en-1-yl)phenyl)boronic acid]	10 to 100 nM	
C[C@@H]1Cc2cc(O)ccc2C(c2ccc(N3CCC(C(=O)N4CCC(N5Cc6cc7c(cc6C5)C(=O)N(C5CCC(=O)NC5=O)C7=O)CC4)CC3)cn2)N1CC(F)F (stereo partly drawn) [E 322, 6-(1-(1-(6-((3R)-2-(2,2-difluoroethyl)-6-hydroxy-3-methyl-1,2,3,4-tetrahydroisoquinolin-1-yl)pyridin-3-yl)piperidine-4-carbonyl)piperidin-4-yl)-2-(2,6-dioxopiperidin-3-yl)-6,7-dihydropyrrolo[3,4-f]isoindole-1,3(2H,5H)-dione]	> 100 nM	
C[C@@H]1Cc2c([nH]c3ccccc23)[C@@H](c2ccc(C3=CCC(C(=O)N4CCC(N5Cc6cc7c(cc6C5)C(=O)N(C5CCC(=O)NC5=O)C7=O)CC4)CC3)cc2F)N1CC1(F)CC1 (stereo partly drawn) [E 486, 2-(2,6-dioxopiperidin-3-yl)-6-(1-(3′-fluoro-4′-((1R,3R)-2-((1-fluorocyclopropyl)methyl)-3-methyl-2,3,4,9-tetrahydro-1H-pyrido[3,4-b]indol-1-yl)-2,3,4,5-tetrahydro-[1,1′-biphenyl]-4-carbonyl)piperidin-4-yl)-6,7-dihydropyrrolo[3,4-f]isoindole-1,3(2H,5H)-dione]		> 100 nM
O=C1CCC(N2C(=O)c3cc4c(cc3C2=O)CCN(CC(=O)N2CCC3(CC2)CCN(c2ccc([C@@H]5c6ccc(O)cc6CC[C@@H]5c5ccccc5)cc2)CC3)CC4)C(=O)N1 (stereo partly drawn) [E 166, 2-(2,6-dioxopiperidin-3-yl)-7-(2-(9-(4-((1R,2S)-6-hydroxy-2-phenyl-1,2,3,4-tetrahydronaphthalen-1-yl)phenyl)-3,9-diazaspiro[5.5]undecan-3-yl)-2-oxoethyl)-6,7,8,9-tetrahydroazepino[4,5-f]isoindole-1,3(2H,5H)-dione]	> 100 nM	
O=C1CCC(N2C(=O)c3cc4c(cc3C2=O)CN(c2ccc(CN3CC(Oc5ccc([C@@H]6c7ccc(O)cc7CC[C@@H]6c6ccccc6)cc5)C3)cn2)C4)C(=O)N1 (stereo partly drawn) [E328, 2-(2,6-dioxopiperidin-3-yl)-6-(5-((3-(4-((1R,2S)-6-hydroxy-2-phenyl-1,2,3,4-tetrahydronaphthalen-1-yl)phenoxy)azetidin-1-yl)methyl)pyridin-2-yl)-6,7-dihydropyrrolo[3,4-f]isoindole-1,3(2H,5H)-dione]	> 100 nM	
O=C1CCC(N2C(=O)c3cc4c(cc3C2=O)CN(C2CCC(CN3CCN(c5ccc([C@@H]6c7ccc(O)cc7CC[C@@H]6c6ccccc6)cc5)CC3)CC2)C4)C(=O)N1 (stereo partly drawn) [E 290, 2-(2,6-dioxopiperidin-3-yl)-6-(4-((4-(4-((1R,2S)-6-hydroxy-2-phenyl-1,2,3,4-tetrahydronaphthalen-1-yl)phenyl)piperazin-1-yl)methyl)cyclohexyl)-6,7-dihydropyrrolo[3,4-f]isoindole-1,3(2H,5H)-dione]	10 to 100 nM	
O=C1CCC(N2C(=O)c3cc4c(cc3C2=O)CN(CC(=O)N2CCC3(CC2)CCN(c2ccc([C@@H]5c6ccc(O)cc6CC[C@@H]5c5ccccc5)cc2)C3)C4)C(=O)N1 (mixture of isomers) [E 139, Rac-2-(2,6-dioxopiperidin-3-yl)-6-(2-(2-(4-((1R,2S)-6-hydroxy-2-phenyl-1,2,3,4-tetrahydronaphthalen-1-yl)phenyl)-2,8-diazaspiro[4.5]decan-8-yl)-2-oxoethyl)-6,7-dihydropyrrolo[3,4-f]isoindole-1,3(2H,5H)-dione]	10 to 100 nM	
O=C1CCC(N2C(=O)c3cc4c(cc3C2=O)CN(CC2CN(C(=O)C3CN(c5ccc([C@@H]6c7ccc(O)cc7CC[C@@H]6c6ccccc6)cc5)C3)C2)C4)C(=O)N1 (mixture of isomers) [E 158, Rac-2-(2,6-dioxopiperidin-3-yl)-6-((1-(1-(4-((1R,2S)-6-hydroxy-2-phenyl-1,2,3,4-tetrahydronaphthalen-1-yl)phenyl)azetidine-3-carbonyl)azetidin-3-yl)methyl)-6,7-dihydropyrrolo[3,4-f]isoindole-1,3(2H,5H)-dione]	> 100 nM	
COc1cc(C2CCC(C(=O)N3CCC(N4Cc5cc6c(cc5C4)C(=O)N(C4CCC(=O)NC4=O)C6=O)CC3)CC2)cnc1[C@@H]1c2[nH]c3ccccc3c2C[C@@H](C)N1CC(F)F (stereo partly drawn) [E 405, 6-(1-(4-(6-((1S,3R)-2-(2,2-difluoroethyl)-3-methyl-2,3,4,9-tetrahydro-1H-pyrido[3,4-b]indol-1-yl)-5-methoxypyridin-3-yl)cyclohexane-1-carbonyl)piperidin-4-yl)-2-(2,6-dioxopiperidin-3-yl)-6,7-dihydropyrrolo[3,4-f]isoindole-1,3(2H,5H)-dione]		> 100 nM
O=C1CCC(N2C(=O)c3cc4c(cc3C2=O)CN(C2CCC(C(=O)NC3CN(c5ccc([C@@H]6c7ccc(O)cc7CC[C@@H]6c6ccccc6)cc5)C3)CC2)C4)C(=O)N1 (some centres unmarked) [E 336]	> 100 nM	
C[C@@H]1Cc2c([nH]c3ccccc23)[C@@H](c2cnc(N3CC4(CCC(CN5Cc6cc7c(cc6C5)C(=O)N(C5CCC(=O)NC5=O)C7=O)CC4)C3)nc2)N1CC(F)F (stereo partly drawn) [E 472, 6-((2-(5-((1R,3R)-2-(2,2-difluoroethyl)-3-methyl-2,3,4,9-tetrahydro-1H-pyrido[3,4-b]indol-1-yl)pyrimidin-2-yl)-2-azaspiro[3.5]nonan-7-yl)methyl)-2-(2,6-dioxopiperidin-3-yl)-6,7-dihydropyrrolo[3,4-f]isoindole-1,3(2H,5H)-dione]		10 to 100 nM
CCC(=C(c1ccc(O)cc1)c1ccc(N2CCC3(CCN(CC(=O)N4Cc5cc6c(cc5C4)C(=O)N(C4CCC(=O)NC4=O)C6=O)CC3)C2)cc1)c1ccccc1 (centres unmarked) [E 192, 2-(2,6-dioxopiperidin-3-yl)-6-(2-(2-(4-(1-(4-hydroxyphenyl)-2-phenylbut-1-en-1-yl)phenyl)-2,8-diazaspiro[4.5]decan-8-yl)acetyl)-6,7-dihydropyrrolo[3,4-f]isoindole-1,3(2H,5H)-dione]	10 to 100 nM	
C[C@@H]1Cc2cc(O)ccc2[C@@H](c2ccc(N3CCC(C(=O)N4CC(CN5Cc6cc7c(cc6C5)C(=O)N(C5CCC(=O)NC5=O)C7=O)C4)CC3)cc2F)N1CC(F)F (stereo partly drawn) [E 349, 6-((1-(1-(4-((1S,3R)-2-(2,2-difluoroethyl)-6-hydroxy-3-methyl-1,2,3,4-tetrahydroisoquinolin-1-yl)-3-fluorophenyl)piperidine-4-carbonyl)azetidin-3-yl)methyl)-2-(2,6-dioxopiperidin-3-yl)-6,7-dihydropyrrolo[3,4-f]isoindole-1,3(2H,5H)-dione]	> 100 nM	
C[C@@H]1Cc2c([nH]c3ccccc23)[C@@H](c2c(F)cc(-c3ccc(C(=O)N4CCC(N5Cc6cc7c(cc6C5)C(=O)N(C5CCC(=O)NC5=O)C7=O)CC4)cn3)cc2F)N1CC(F)F (stereo partly drawn) [E 343, 6-(1-(6-(4-((1R,3R)-2-(2,2-difluoroethyl)-3-methyl-2,3,4,9-tetrahydro-1H-pyrido[3,4-b]indol-1-yl)-3,5-difluorophenyl)nicotinoyl)piperidin-4-yl)-2-(2,6-dioxopiperidin-3-yl)-6,7-dihydropyrrolo[3,4-f]isoindole-1,3(2H,5H)-dione]	< 10 nM	
